Laboratory results reported in patent US20130267494A1, “1,4-OXAZEPANE DERIVATIVES” (priority 2010, published 2013).
Counter-ions that a name gives are not always drawn.

System: SD female rats
Assay: Measurement of urethral resistance increasing effect (leak point pressure, intravenous administration)
Type: in vivo, rat
Conditions: for urethral resistance increasing effect (cmH2O): SD female rats
Method: The urethral resistance increasing effect in rat was measured by a modified method of Matsumoto et al. (WO2009/063992) as follows. That is, SD female rats (CLEA Japan, Inc.) were anesthetized with isoflurane (1.0%; Abbott), and the spinal cord was transected at Th8-9 to avoid the voiding reflex. After laparotomy, an intravesical pressure measurement catheter and a saline infusion catheter (PE-100; Clay Adams) were inserted into the bladder. Thereafter, the abdomen of the rat was closed with aronalpha A “Sankyo” (Daiichi Sankyo). The rat with an inserted catheter was placed in a Bollman cage (KN-326 Bollman cage TYPE III; Natsume). The intravesical pressure measurement catheter was connected to a computer via a pressure transducer (REF685640; Nihon Koden), an amplifier (RPM-6008M; Nihon Koden), and a multi-channel data analyzer (MP150; Biopack), and changes in the intravesical pressure were recorded on a hard disc at a frequency of 100 samples/sec. The saline infusion catheter was connected to a 50 mL syringe (Terumo) filled with saline colored with Evans Blue (Wako). The saline was infused into the bladder from the 50 mL syringe filled with saline at a rate of 0.1 mL/sec by using an infusion pump (Kds100; KD Scientific). When the saline leaked from the urethral orifice, infusion was discontinued, and the saline in the bladder was released. The maximum pressure observed during infusion of saline into the bladder and leakage thereof was taken as an LPP (Leak point pressure) value. The measurement was repeated until the LPP value was stabilized, and an average of continuous three stable LPP values was taken as the result. […] The LPP value (Pre value) was measured, a drug was intravenously administered, and the measurement of LPP value (Post value) was again started 10 min after administration. […]
The compound of Example 6 (0.3 mg/kg), the compound of Example 6 (1.0 mg/kg) and the vehicle were administered to the rats, and the urethral resistance increasing effect was measured by the aforementioned method.

CC(=O)NC[C@H]1CNCCO[C@@H]1c1ccc(Cl)c(Cl)c1 (racemic) [Example 6, N-{[(6RS,7SR)-7-(3,4-dichlorophenyl)-1,4-oxazepan-6-yl]methyl}acetamide monohydrochloride]
urethral resistance increasing effect (cmH2O) (dose 0.3 mg/kg): 12.8 ± 1.1 cmH2O
urethral resistance increasing effect (cmH2O) (dose 1.0 mg/kg): 19.1 ± 1.8 cmH2O
urethral resistance increasing effect (LPP Post value minus Pre value) compared to vehicle (spinal cord-transected SD female rats, intravenous 0.3 and 1.0 mg/kg, LPP measured from 10 min after administration, Williams' test): dose-dependent and significant urethral resistance increasing effect
